Data: ChEMBL document CHEMBL5506058, “Discovery of Quinazoline and Quinoline-Based Small Molecules as Utrophin Upregulators via AhR Antagonism for the Treatment of Duchenne Muscular Dystrophy” (J Med Chem, 2024)
Converted amounts (≈) assume the structure as drawn. The source made the active and inactive calls. No cut-off for these calls is given here.

What was measured:
[1] = Upregulation of utrophin expression in mouse C2C12 cells assessed as fold increase at 3 uM measured after 72 hrs by In-cell ELISA method; format: functional
[2] = Upregulation of utrophin protein expression in human patient derived KM1328 cells assessed as fold increase at 3 uM measured after 72 hrs by […]; format: functional
[3] = biological target: T1, Aryl hydrocarbon receptor (Mus musculus, UniProt P30561); assay: Antagonist activity at AhR in mouse C2C12 cells assessed as reduction in ITE induced AhR nuclear translocation measured after 2 hrs by Hoechst 33258 staining based fluorescence microscopy analysis; format: cell-based; details: c2c12, 2 h
T1 sequence (P30561 whole entry): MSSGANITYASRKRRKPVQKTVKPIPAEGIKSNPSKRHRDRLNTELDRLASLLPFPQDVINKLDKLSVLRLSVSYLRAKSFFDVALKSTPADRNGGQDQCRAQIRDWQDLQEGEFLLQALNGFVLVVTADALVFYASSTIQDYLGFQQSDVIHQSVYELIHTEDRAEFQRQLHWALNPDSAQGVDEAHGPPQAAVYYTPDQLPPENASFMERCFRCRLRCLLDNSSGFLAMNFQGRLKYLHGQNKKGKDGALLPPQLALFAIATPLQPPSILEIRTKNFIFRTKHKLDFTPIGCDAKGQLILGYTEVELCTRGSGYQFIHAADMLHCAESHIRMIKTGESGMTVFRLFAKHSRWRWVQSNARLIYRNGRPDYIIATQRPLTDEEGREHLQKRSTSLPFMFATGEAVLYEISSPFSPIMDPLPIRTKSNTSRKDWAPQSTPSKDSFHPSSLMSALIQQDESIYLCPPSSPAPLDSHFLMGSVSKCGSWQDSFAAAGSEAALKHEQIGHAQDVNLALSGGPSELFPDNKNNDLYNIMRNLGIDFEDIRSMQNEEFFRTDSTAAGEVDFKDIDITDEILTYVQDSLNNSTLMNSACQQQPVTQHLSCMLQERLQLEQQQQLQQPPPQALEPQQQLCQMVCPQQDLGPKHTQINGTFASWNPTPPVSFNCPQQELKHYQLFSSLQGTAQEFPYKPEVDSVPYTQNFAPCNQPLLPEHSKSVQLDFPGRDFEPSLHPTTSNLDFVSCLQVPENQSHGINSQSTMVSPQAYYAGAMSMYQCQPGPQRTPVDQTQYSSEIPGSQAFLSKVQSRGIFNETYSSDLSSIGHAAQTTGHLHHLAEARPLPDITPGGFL

[4] = Stability in human serum assessed as remaining compound at 50 uM measured after 2 hrs by LC-MS and HPLC analysis; format: ADME, cell-free; details: read-out: Stability
C2C12 [5] = assay: Cytotoxicity against mouse C2C12 cells assessed as reduction in cell viability at 0.78 to 100 uM measured after 24 hrs by MTT assay; format: toxicity, cell-based; details: c2c12, 24 h, dose 0.78-100 µM
[6] = biological target: T1, Aryl hydrocarbon receptor; assay: Antagonist activity at AhR in mouse C2C12 cells assessed as reduction in ITE induced AhR nuclear translocation at 800 nM measured after 2 hrs by Hoechst 33258 staining based fluorescence microscopy analysis; format: cell-based; details: c2c12, 2 h, 0.8 µM
[7] = Metabolic stability in rat liver microsomes assessed as intrinsic clearance at 5 uM preincubated for 5 mins followed by NADPH addition and measured upto 60 mins by LC-MS analysis; format: ADME, Microsome; details: time < 65 min, read-out: CLH
C2C12 [8] = assay: Upregulation of utrophin mRNA expression in mouse C2C12 level measured after 72 hrs by qRT-PCR analysis; format: functional, cell-based; details: dose 200-800 nM
[9] = Lipophilicity, logD of the compound in octanol/PBS at pH 7.4 measured after 1 hr by LC-MS and HPLC analysis; format: physicochemical
[10] = Upregulation of utrophin protein expression in human patient derived KM1328 cells assessed as fold increase at 800 nM measured after 72 hrs by Western blot analysis; format: functional
[11] = biological target: T1, Aryl hydrocarbon receptor; assay: Antagonist activity at AhR in mouse C2C12 cells assessed as reversal of TCDD inhibited myogenesis by measuring fold change at 800 nM measured after 7 days by Hoechst 33258 staining based fluorescence microscopy analysis; format: cell-based; details: c2c12, 168 h, 0.8 µM, time 7 day
[12] = biological target: T1, Aryl hydrocarbon receptor; assay: Induction of AhR nuclear translocation in mouse C2C12 cells at 800 nM measured after 2 hrs by Hoechst 33258 staining based fluorescence microscopy analysis; format: cell-based; details: c2c12, 2 h, 0.8 µM
Homo sapiens = species: Homo sapiens; assay: Binding affinity to recombinant AhR/ARNT (unknown origin) assessed as binding constant incubated for 30 mins by fluorescence quenching analysis; details: filed as antagonist
[13] = Stability in human plasma assessed as remaining compound at 50 uM measured after 2 hrs by LC-MS and HPLC analysis; format: ADME, cell-free; details: read-out: Stability
C2C12 [14] = assay: Upregulation of utrophin protein expression in mouse C2C12 level measured after 72 hrs by Westernblot analysis; format: functional, cell-based; details: dose 200-800 nM
C2C12 [15] = assay: Upregulation of utrophin mRNA expression in mouse C2C12 cells at 800 nM measured after 72 hrs by qRT-PCR analysis; format: functional, cell-based
[16] = Upregulation of utrophin expression in mouse C2C12 cells assessed as fold increase at 800 nM measured after 72 hrs by In-cell ELISA method; format: functional
[17] = Aqueous solubility of the compound in DMSO measured after 2 hrs by turbidity assay; format: physicochemical
[18] = Lipophilicity, logD of the compound in cyclohexane/PBS at pH 7.4 measured after 1 hr by LC-MS and HPLC analysis; format: physicochemical; details: pH 7.4, 1 h
[19] = Binding affinity to recombinant AhR/ARNT (unknown origin) assessed as dissociation constant incubated for 30 mins by fluorescence quenching analysis; set-up: species or system Homo sapiens
[20] = Upregulation of utrophin mRNA expression in mouse C2C12 cells assessed as fold increase at 800 nM measured after 72 hrs by qRT-PCR analysis; format: functional
[21] = Upregulation of utrophin protein expression in mouse C2C12 cells assessed as fold increase at 800 nM measured after 72 hrs by Western blot analysis; format: functional

O=C(/C=C/C=C/c1ccc2c(c1)OCO2)N1CCCCC1 [PIPERINE]
fold change (FC) [1]: 1.3 | fold change (FC) [2]: 0.99 | Activity [3]: Not Active

CS(=O)(=O)c1ccc2nc(NCc3ccc(F)cc3)ncc2c1
remaining at 2 h, 50 µM [4]: 70% | Activity (C2C12 [5]): Toxic | Activity [6]: Active | microsomal CLint at 5 µM [7]: 6.66 µL/min/mg | Activity (C2C12 [8]): Dose-Dependent Effect | logD at 1 h [9]: 2.46 | fold change (FC) [10]: 2.3 | fold change (FC) [11]: 2 | Activity [12]: Not Active | Ka (Homo sapiens): 24 µM⁻¹ | remaining at 2 h, 50 µM [13]: 69.2% | Activity (C2C12 [14]): Dose-Dependent Effect | Activity (C2C12 [15]): Active | fold change (FC) [16]: 2.14 | solubility kinetic at 2 h [17]: 30 µM (≈ 9.94 µg/mL) | logD [18]: 0.2 | Kd [19]: 41.7 nM | fold change (FC) [20]: 2.11 | fold change (FC) [21]: 2.72
